Read-outs that look alike come from different tables or passages of the source.
Legend:
Format in all cases: physicochemical
[1] = Cyclic voltammetry and optical band gap: energy levels in DMF and DCM solution; details: for EHOMO: EHOMO=ELUMO+Eg opt; for ELUMO: calculated from E vs Fc/Fc^+ with conversion factors; for λ: edge of electronic absorption spectrum in solution; for E vs Fc/Fc^+: glassy carbon electrode, 0.1 M tetrabutylammonium hexafluorophosphate, calibrated with ferrocene; for Eg^opt-sol: optical band gap, Eg opt=1240/λ
Experimental: CV measurements were carried out by a three-electrode assembly cell from Bio-Logic SP-150. The measurements were carried out at a glassy carbon electrode in DMF and DCM solutions containing 0.1 M tetrabutylammonium hexafluorophosphate as an electrolyte, Pt as the counter electrode and as the reference electrode. Each measurement was calibrated with ferrocene (Fc) and potentials calculated to Fc^+/Fc. Conversion factors: ferrocene in DCM vs SCE 0.46, DMF vs SCE 0.45, SCE vs SHE: 0.244, SHE vs vacuum: 4.43 (N. G. Connelly, W. E. Geiger, Chemical Reviews 1996, 96, 877; V. V. Pavlishchuk, A. W. Addison, Inorganica Chimica Acta 2000, 298, 97). The half-wave potential E1/2vs Fc was obtained as an average value between maxima of cathodic and anodic potentials: E1/2 vs Fc=1/2([…]). The optical band gaps Eg opt=1240/λ was estimated from the edges of electronic absorption spectra in DCM and DMF solutions. ELUMO was calculated from the equation ELUMO=(E vs Fc/Fc^++(solvent vs SCE)+0.244+4.43. EHOMO calculated from the equation EHOMO=ELUMO[…].

[2] = Solubility in organic solvents
[3] = Thermogravimetric analysis (TGA); details: scan rate 10 K min^−1, nitrogen atmosphere
Experimental: TGA was performed on a Q50 thermogravimetric analyzer (TA Instruments) at a scan rate of 10 K min^−1 in the nitrogen atmosphere.

[4] = UV/vis absorption and transmittance spectra
From the text: In the n-i-p structure PSC light first posses through the ETL, thus it is important to minimize parasitic absorption of this layer.

[5] = Water contact angle of ITO/SAM surface; details: coated onto ITO, washed to remove unbound molecules
From the text: It is noted that all the samples were washed with respective solvents to remove unbounded SAM molecules from the ITO substrate. […] The higher hydrophobicity of ITO/SAM substrate will affect the crystallization and morphology of perovskite film.^[21,22] The more hydrophobic surface (less wetting) of ITO/NDI-SAM surface can suppress the dragging force of perovskite inks, resulting in larger grain-size perovskite crystals, as indicated from top-view scanning electron microscopy (SEM) images in FIG. 6a,b.^[21,22] In addition, the tertbutyl groups of V1264 on the upper side can interact well with the perovskite layer, resulting in less pinholes or voids formed at ITO/V1264/perovskite interface, see FIG. 7.

[6] = Contact potential difference (CPD) surface mapping on ITO
From the text: The surface mapping of contact potential difference (CPD) values of V1264 on ITO confirmed uniformity of SAM coverage. The rather homogenous pattern was proportional to the narrow work function (WF) fluctuation in a specific area (˜4.45 eV), overall indicating a good V1264 coverage on ITO.

[7] = organic solvent or mixture, methanol, sonicated, read-out: Solubility in Methanol
[8] = CHCl3, organic solvent or mixture, read-out: Solubility in CHCl3
[9] = DCM, organic solvent or mixture, read-out: Solubility in DCM
[10] = THF, organic solvent or mixture, read-out: Solubility in THF

| Structure (SMILES) | EHOMO [1] [eV] | ELUMO [1] [eV] | λ [1] [nm] | E vs Fc/Fc^+ [1] [V] | Eg^opt-sol [1] [eV] | solubility ([2]; organic solvent or mixture, THF, sonicated, read-out: Solubility in THF) [µg/mL] | solubility ([2]; organic solvent or mixture, isopropanol, sonicated, read-out: Solubility in Isopropanol) [µg/mL] | solubility [2, 7] [µg/mL] | solubility [2, 8] [µg/mL] | solubility [2, 9] [µg/mL] | solubility [2, 10] [µg/mL] | 95% weight loss temperature [3] [°C] | Absorption in the visible region ([4]; UV/vis, 10^−4 M anhydrous dichloromethane) | Optical losses (UV-Vis transmittance) of SAM on ITO surface ([4]; compared to bare ITO and ITO/SnO2 films) | Voltammogram behaviour in solution ([1]; during the scans) | Water contact angle (surface hydrophobicity) [5] | Work function (WF) [6] [eV] | solubility ([2]; chlorobenzene, organic solvent or mixture, read-out: Solubility in Chlorobenzene) [µg/mL] | solubility ([2]; toluene, organic solvent or mixture, read-out: Solubility in Toluene) [µg/mL] |
| --- | --- | --- | --- | --- | --- | --- | --- | --- | --- | --- | --- | --- | --- | --- | --- | --- | --- | --- | --- |
| O=C1c2cc(Br)c3c4c(cc(Br)c(c24)C(=O)N1CP(=O)(O)O)C(=O)N(CP(=O)(O)O)C3=O [Compound V1486] | −6.76 | −3.86 | 426 | −1.26 | 2.90 | ≤ 500 | ≤ 500 | ≤ 700 | – | – | – | – | – | – | – | – | – | – | – |
| O=C1c2ccc3c4c(ccc(c24)C(=O)N1CP(=O)(O)O)C(=O)N(CP(=O)(O)O)C3=O [Compound V1612, N, N′-bi(methyl)-1,4,5,8-naphthalene tetracarboxylic diimide diphosphonic acid] | −6.97 | −3.9 | 403 | −1.17 | 3.07 | – | – | ≤ 500 | – | – | – | – | – | – | – | – | – | – | – |
| CC(C)(C)c1ccc(C(C)(C)C)c(N2C(=O)c3ccc4c5c(ccc(c35)C2=O)C(=O)N(CCP(=O)(O)O)C4=O)c1 [Compound V1624, N-(2,5-di-tert-butyl-phenyl)-N′-(ethyl)-1,4,5,8-naphthalene tetracarboxylic diimide phosphonic acid] | −7.11 | −3.96 | 393 | −1.16 | 3.15 | – | – | – | ≤ 5000 | ≤ 7000 | ≤ 1000 | – | – | – | – | – | – | – | – |
| CC(C)(C)c1ccc(C(C)(C)C)c(N2C(=O)c3ccc4c5c(ccc(c35)C2=O)C(=O)N(c2ccc(P(=O)(O)O)cc2)C4=O)c1 [Compound V1635] | −6.98 | −3.84 | 394 | −1.28 | 3.14 | – | – | – | ≤ 15000 | ≤ 10000 | – | – | – | – | – | – | – | – | – |
| O=C1c2ccc3c4c(ccc(c24)C(=O)N1CCP(=O)(O)O)C(=O)N(CCP(=O)(O)O)C3=O [Compound V1625, N, N′-bis(ethyl)-1,4,5,8-naphthalene tetracarboxylic diimide diphosphonic acid] | −6.91 | −3.79 | 397 | −1.32 | 3.12 | – | – | ≤ 500 | – | – | – | – | – | – | – | – | – | – | – |
| CC(C)(C)c1ccc(C(C)(C)C)c(N2C(=O)c3ccc4c5c(ccc(c35)C2=O)C(=O)N(CP(=O)(O)O)C4=O)c1 [Compound V1264, N-(2,5-di-tert-butyl-phenyl)-N′-(methyl)-1,4,5,8-naphthalene tetracarboxylic diimide phosphonic acid] | −6.97 | −3.81 | 392 | −1.34 | 3.16 | – | – | – | ≤ 7500 | ≤ 15000 | ≤ 6500 | 356 | no apparent absorption in the visible region | neglectable optical losses | reversible reduction waves | around 78.4 ° | ~4.45 | ≤ 13000 | ≤ 800 |

— patent US20250241109A1, “Electron Transporting Self-Assembling Monolayer Compound for Use in Optoelectronic and/or Photoelectrochemical Devices and Manufacture Thereof” (Kaunas University of Technology, priority 2024, published 2025)
